Measurements published in patent publication US20260184707A1, “PHARMACEUTICAL COMPOUNDS FOR THE TREATMENT OF COMPLEMENT MEDIATED DISORDERS” (ALEXION PHARMACEUTICALS, INC., priority 2022, published 2026).
pIC50: −log10 of the molar value.

Target: T1, Human complement C1s enzyme (Homo sapiens, UniProt P09871)
T1 construct: purified from human serum, Complement Technology, Inc; purchased Complement Technology, Inc; host or cells: human serum (plasma-derived native protein)
T1 sequence (P09871 438-688 limits assumed): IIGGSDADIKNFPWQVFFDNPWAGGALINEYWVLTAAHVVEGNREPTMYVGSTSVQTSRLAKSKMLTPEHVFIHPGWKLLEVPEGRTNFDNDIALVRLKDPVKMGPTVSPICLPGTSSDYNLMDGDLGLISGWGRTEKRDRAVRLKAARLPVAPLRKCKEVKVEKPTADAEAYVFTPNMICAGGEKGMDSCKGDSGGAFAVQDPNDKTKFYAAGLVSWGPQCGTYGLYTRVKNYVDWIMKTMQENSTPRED
T1 sequence (P09871 16-437 partner limits assumed): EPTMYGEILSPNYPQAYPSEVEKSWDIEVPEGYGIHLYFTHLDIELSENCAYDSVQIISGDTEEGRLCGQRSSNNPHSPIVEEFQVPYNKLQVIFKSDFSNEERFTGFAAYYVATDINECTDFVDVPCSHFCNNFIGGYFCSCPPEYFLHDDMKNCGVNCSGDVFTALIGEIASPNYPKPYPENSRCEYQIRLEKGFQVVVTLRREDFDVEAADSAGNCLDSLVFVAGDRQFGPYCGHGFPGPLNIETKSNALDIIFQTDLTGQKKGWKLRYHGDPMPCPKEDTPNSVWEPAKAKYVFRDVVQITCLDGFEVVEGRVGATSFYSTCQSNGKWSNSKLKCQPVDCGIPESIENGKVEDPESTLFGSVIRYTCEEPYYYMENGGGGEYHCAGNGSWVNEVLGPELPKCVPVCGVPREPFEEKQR
Assay: Human C1s enzyme assay
Assay type: biochemical
Conditions: human complement C1s enzyme 1.16 nM, substrate Z-L-Lys-SBzl, A405; read-out: IC50 (Stars)
Procedure, shortened: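 Serum-purified human C1s (1.16 nM final) preincubated 5 min at room temperature with compound in 50 mM Tris, 1 M NaCl, pH 7.5. Z-L-Lys-SBzl and DTNB added at 100 μM each; A405 recorded every 30 s. IC50 from nonlinear regression of reaction rates versus compound concentration.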

Row | pIC50 | SMILES
1 | > 7.00 | C[C@@H](Nc1cnc(-c2ccccc2F)n(CC(=O)NCc2cc3cnccc3[nH]2)c1=O)c1ccc2oc3c(F)cccc3c2c1 [Compound 318, (R)—N-((1H-Pyrrolo[3,2-c]pyridine-2-yl)methyl)-2-(5-((1-(6-fluorodibenzo[b,d]furan-2-yl)ethyl)amino)-2-(2-fluorophenyl)-6-oxopyrimidin-1(6H)-yl)acetamide]
2 | > 7.00 | O=C(Cn1c(-c2ccccc2)ncc(NC(=O)c2ccc(Oc3nccs3)cc2)c1=O)NCc1cc2cnccc2[nH]1 [Compound 94, N-(1-(2-(((1H-pyrrolo[3,2-c]pyridin-2-yl)methyl)amino)-2-oxoethyl)-6-oxo-2-phenyl-1,6-dihydropyrimidin-5-yl)-4-(thiazol-2-yloxy)benzamide]
3 | 6.00 to 7.00 | O=C(Cn1cncc(NC(=O)c2csc(-c3ccccc3)n2)c1=O)NCc1cc2cnccc2[nH]1 [Compound 393, N-(1-(2-(((1H-pyrrolo[3,2-c]pyridin-2-yl)methyl)amino)-2-oxoethyl)-6-oxo-1,6-dihydro-pyrimidin-5-yl)-2-phenyl-thiazole-4-carboxamide]
4 | > 7.00 | C[C@@H](Nc1cnc(N2CCCCC2)n(CC(=O)NCc2cc3cnccc3[nH]2)c1=O)c1ccc(-c2ccccc2F)cc1 [Compound 416, (R)-N-((1H-pyrrolo[3,2-c]pyridin-2-yl)methyl)-2-(5-((1-(2′-fluoro-[1,1′-biphenyl]-4-yl)ethyl)amino)-6-oxo-2-(piperidin-1-yl)pyrimidin-1(6H)-yl)acetamide]
5 | > 7.00 | O=C(Cn1c(-c2ccc(OCc3ccccc3)cc2)ncc(NCc2ccc3oc4ccccc4c3c2)c1=O)NCc1cc2cnccc2[nH]1 [Compound 155, N-((1H-pyrrolo[3,2-c]pyridin-2-yl)methyl)-2-(2-(4-(benzyl-oxy)phenyl)-5-((dibenzo[b,d]furan-2-ylmethyl)amino)-6-oxopyrimidin-1(6H)-yl)acet-amide]
6 | < 6.00 | CC(C)[C@@H](Nc1cnc(-c2ccccc2F)n(CC(=O)NCc2cc3cnccc3[nH]2)c1=O)c1ccc2oc3ccccc3c2c1 [Compound 332, (R)—N-((1H-pyrrolo[3,2-c]pyridine-2-yl)methyl)-2-(5-((1-(dibenzo[b,d]furan-2-yl)-2-methylpropyl)amino)-2-(2-fluorophenyl)-6-oxopyrimidin-1(6H)-yl)acetamide]
7 | > 7.00 | C[C@@H](Nc1nnc(-c2ccccc2F)n(CC(=O)NCc2cc3cnccc3[nH]2)c1=O)c1ccc2oc3ccccc3c2c1 [Compound 390, (R)—N-((1H-pyrrolo[3,2-c]pyridine-2-yl)methyl)-2-(6-((1-(dibenzo[b,d]furan-2-yl)ethyl)amino)-3-(2-fluorophenyl)-5-oxo-1,2,4-triazin-4(5H)-yl)acetamide]
8 | > 7.00 | Cc1cn(CC(=O)NCc2cc3cnccc3[nH]2)c(=O)c(N[C@H](C)c2ccc3oc4ccccc4c3c2)n1 [Compound 333, (R)—N-((1H-pyrrolo[3,2-c]pyridine-2-yl)methyl)-2-(3-((1-(dibenzo[b,d]furan-2-yl)ethyl)amino)-5-methyl-2-oxopyrazin-1(2H)-yl)acetamide]
9 | < 6.00 | O=C(COc1cc(C(=O)NCc2ccc3oc4ccccc4c3c2)nc(-c2ccccc2)n1)NCc1cc2cnccc2[nH]1 [Compound 268, 6-(2-(((1H-pyrrolo[3,2-c]pyridine-2-yl)methyl)amino)-2-oxoethoxy)-N-(dibenzo[b,d]furan-2-ylmethyl)-2-phenylpyrimidine-4-carboxamide]
10 | 6.00 to 7.00 | O=C(Cn1c(-c2ccccc2)ncc(N2CC3CCC2C3)c1=O)NCc1cc2cnccc2[nH]1 (centres unmarked) [Compound 65, N-((1H-pyrrolo[3,2-c]pyridin-2-yl)methyl)-2-(5-(2-azabicyclo [2.2.1]heptan-2-yl)-6-oxo-2-phenylpyrimidin-1(6H)-yl)-acetamide]
11 | > 7.00 | C[C@@H](Nc1cnc(-c2cscn2)n(CC(=O)NCc2cc3cnccc3[nH]2)c1=O)c1ccc2oc3ccccc3c2c1 [Compound 339, (R)-N-((1H-pyrrolo[3,2-c]pyridin-2-yl)methyl)-2-(5-((1-(dibenzo[b,d]furan-2-yl)ethyl)-amino)-6-oxo-2-(thiazol-4-yl)-pyrimidin-1(6H)-yl)acetamide]
12 | > 7.00 | O=C(Cn1cncc(NC(=O)c2cnc(-c3ccccc3)o2)c1=O)NCc1cc2cnccc2[nH]1 [Compound 405, N-(1-(2-(((1H-pyrrolo[3,2-c]pyridin-2-yl)methyl)amino)-2-oxoethyl)-6-oxo-1,6-dihydro-pyrimidin-5-yl)-2-phenyl-oxazole-5-carboxamide]
13 | > 7.00 | O=C(Cn1c(N2CCOCC2)ncc(NC(=O)c2cnc(-c3ccccc3)o2)c1=O)NCc1cc2cnccc2[nH]1 [Compound 408, N-(1-(2-(((1H-pyrrolo[3,2-c]pyridine-2-yl)methyl)amino)-2-oxoethyl)-2-morpholino-6-oxo-1,6-dihydropyrimidin-5-yl)-2-phenyloxazole-5-carboxamide]
14 | > 7.00 | O=C(Cn1c(-c2ccccc2)ncc(NC(=O)c2ccc(-c3ncco3)cc2)c1=O)NCc1cc2cnccc2[nH]1 [Compound 108, N-(1-(2-(((1H-pyrrolo[3,2-c]pyridin-2-yl)methyl)amino)-2-oxoethyl)-6-oxo-2-phenyl-1,6-dihydropyrimidin-5-yl)-4-(oxazol-2-yl)benzamide]
15 | > 7.00 | C[C@H](Nc1cnc(-c2ccncc2)n(CC(=O)NCc2cc3cnccc3[nH]2)c1=O)c1ccc2oc3ccccc3c2c1 [Compound 315, (S)-N-((1H-pyrrolo[3,2-c]pyridin-2-yl)methyl)-2-(5-((1-(dibenzo[b,d]furan-2-yl)ethyl)-amino)-6-oxo-2-(pyridin-4-yl)-pyrimidin-1(6H)-yl)acetamide]
16 | < 6.00 | C[C@@H](Nc1cnc(-c2ccccc2F)n([C@@H](C)C(=O)NCc2cc3cnccc3[nH]2)c1=O)c1ccc2oc3ccccc3c2c1 (single isomer, unassigned) [Compound 363, (S*)—N-((1H-pyrrolo[3,2-c]pyridine-2-yl)methyl)-2-(5-(((R)-1-(dibenzo[b,d]furan-2-yl)ethyl)amino)-2-(2-fluorophenyl)-6-oxopyrimidin-1(6H)-yl)propenamide]
17 | > 7.00 | C[C@@H](Nc1ncc(C2=CCCCC2)n(CC(=O)NCc2cc3cnccc3[nH]2)c1=O)c1ccc2oc3ccccc3c2c1 [Compound 427, (R)-N-((1H-pyrrolo[3,2-c]pyridin-2-yl)methyl)-2-(6-(cyclohex-1-en-1-yl)-3-((1-(dibenzo[b,d]furan-2-yl)ethyl)-amino)-2-oxopyrazin-1(2H)-yl)acetamide]
18 | > 7.00 | C[C@@H](Nc1cnc(N2CCCC(F)(F)C2)n(CC(=O)NCc2cc3cnccc3[nH]2)c1=O)c1ccc2oc3ccccc3c2c1 [Compound 399, (R)-N-((1H-pyrrolo[3,2-c]pyridin-2-yl)methyl)-2-(5-((1-(dibenzo[b,d]furan-2-yl)ethyl)-amino)-2-(3,3-difluoropiperi-din-1-yl)-6-oxopyrimidin-1(6H)-yl)acetamide]
19 | > 7.00 | O=C(Cn1c(-c2ccccc2)ncc(NC(=O)c2ccc(-c3ccccc3)s2)c1=O)Nc1nccs1 [Compound 220, N-(6-oxo-1-(2-oxo-2-(thiazol-2-ylamino)ethyl)-2-phenyl-1,6-dihydropyrimidin-5-yl)-5-phen-ylthiophene-2-carboxamide]
20 | > 7.00 | O=C(Cn1c(-c2ccccc2)ncc(NC(=O)c2cccc(Oc3ccccc3)c2)c1=O)NCc1cc2cnccc2[nH]1 [Compound 58, N-(1-(2-(((1H-pyrrolo[3,2-c]pyridin-2-yl)methyl)amino)-2-oxoethyl)-6-oxo-2-phenyl-1,6-dihydropyrimidin-5-yl)-3-phen-oxybenzamide]
21 | > 7.00 | O=C(Cn1c(-c2ccccc2)ncc(NC(=O)c2ccc(-c3ccccc3)o2)c1=O)NCc1cc2cnccc2[nH]1 [Compound 206, N-(1-(2-(((1H-pyrrolo[3,2-c]pyridin-2-yl)methyl)amino)-2-oxoethyl)-6-oxo-2-phenyl-1,6-dihydropyrimidin-5-yl)-5-phen-ylfuran-2-carboxamide]
22 | > 7.00 | O=C(Cn1c(-c2ccc(C(F)(F)F)cc2)ncc(NCc2ccc3oc4ccccc4c3c2)c1=O)NCc1cc2cnccc2[nH]1 [Compound 135, N-((1H-pyrrolo[3,2-c]pyridin-2-yl)methyl)-2-(5-((dibenzo [b,d]furan-2-ylmethyl)amino)-6-oxo-2-(4-(trifluoromethyl)-phenyl)pyrimidin-1(6H)-yl)-acetamide]
23 | > 7.00 | C[C@@H](Nc1cnc(N2CCCCC2)n(CC(=O)NCc2cc3cnccc3[nH]2)c1=O)c1ccc2oc3ccccc3c2c1 [Compound 361, (R)-N-((1H-pyrrolo[3,2-c]pyridin-2-yl)methyl)-2-(5-((1-(dibenzo[b,d]furan-2-yl)ethyl)-amino)-6-oxo-2-(piperidin-1-yl)pyrimidin-1(6H)-yl)acet-amide]
